# BindingDB's records for doi:10.1016/s0960-894x(01)00631-x (Novartis Pharma, 2001)
# Molecular target: Substance-P receptor (Bos taurus)
# Experiment: In vitro binding affinity for Tachykinin receptor 1 of bovine retinal membranes using [3H]Sar9-substance P as radioligand
row,IC50 [nM],SMILES
1,1.4,"CN(C(=O)c1cc(C(F)(F)F)cc(C(F)(F)F)c1)N(CCC(=O)N[C@@H]1CCCCNC1=O)Cc1ccc(Cl)c(Cl)c1 [3-[N'-(3,5-Bis-trifluoromethyl-benzoyl)-N-(3,4-dichloro-benzyl)-N'-methyl-hydrazino]-N-((R)-2-oxo-azepan-3-yl)-propionamide]"
2,12,"CN(C(=O)c1cc(C(F)(F)F)cc(C(F)(F)F)c1)[C@@H](/C=C/C(=O)NC1CCCCCC1)Cc1ccc(Cl)cc1 [N-[(E)-(R)-1-(4-Chloro-benzyl)-3-cycloheptylcarbamoyl-allyl]-N-methyl-3,5-bis-trifluoromethyl-benzamide]"
3,1.1,"CN(C(=O)c1cc(C(F)(F)F)cc(C(F)(F)F)c1)[C@@H](/C=C/C(=O)N[C@@H]1CCCCNC1=O)Cc1ccc2ccccc2c1 [N-Methyl-N-[(E)-(R)-1-naphthalen-2-ylmethyl-3-((R)-2-oxo-azepan-3-ylcarbamoyl)-allyl]-3,5-bis-trifluoromethyl-benzamide]"
4,18,"CN(C(=O)c1cc(C(F)(F)F)cc(C(F)(F)F)c1)N(CCC(=O)N[C@@H]1CCCCNC1=O)Cc1cc(Br)c(Br)s1 [3-[N'-(3,5-Bis-trifluoromethyl-benzoyl)-N-(4,5-dibromo-thiophen-2-ylmethyl)-N'-methyl-hydrazino]-N-((R)-2-oxo-azepan-3-yl)-propionamide]"
5,20,"CN(C(=O)c1cc(C(F)(F)F)cc(C(F)(F)F)c1)[C@@H](/C=C/C(=O)N[C@@H]1CCCCNC1=O)Cc1cc(Br)c(Br)s1 [N-[(E)-(R)-1-(4,5-Dibromo-thiophen-2-ylmethyl)-3-((R)-2-oxo-azepan-3-ylcarbamoyl)-allyl]-N-methyl-3,5-bis-trifluoromethyl-benzamide]"
6,6.4,"CN(C(=O)c1cc(C(F)(F)F)cc(C(F)(F)F)c1)N(CCC(=O)N[C@@H]1CCCCNC1=O)Cc1ccc2ccccc2c1 [3-[N'-(3,5-Bis-trifluoromethyl-benzoyl)-N'-methyl-N-naphthalen-2-ylmethyl-hydrazino]-N-((R)-2-oxo-azepan-3-yl)-propionamide]"
7,0.5,"CN(C(=O)c1cc(C(F)(F)F)cc(C(F)(F)F)c1)[C@@H](/C=C/C(=O)N[C@@H]1CCCCNC1=O)Cc1cn(C)c2ccccc12 [N-Methyl-N-[(E)-(R)-1-(1-methyl-1H-indol-3-ylmethyl)-3-((R)-2-oxo-azepan-3-ylcarbamoyl)-allyl]-3,5-bis-trifluoromethyl-benzamide]"
8,4.8,"CN(C(=O)c1cc(C(F)(F)F)cc(C(F)(F)F)c1)[C@@H](/C=C/C(=O)N[C@@H]1CCCCNC1=O)Cc1ccc(Cl)c(Cl)c1 [N-[(R,R)-(E)-(3,4-dichlorobenzyl)-3-(2-oxoazepan-3-yl)carbamoyl]allyl-N-methyl-3,5-bis(trifluoromethyl)benzamide]"
9,1,"CN(C(=O)c1cc(C(F)(F)F)cc(C(F)(F)F)c1)[C@@H](/C=C/C(=O)NC1(C(N)=O)CCCCC1)Cc1ccc(Cl)cc1 [N-[(E)-(R)-3-(1-Carbamoyl-cyclohexylcarbamoyl)-1-(4-chloro-benzyl)-allyl]-N-methyl-3,5-bis-trifluoromethyl-benzamide]"
